Measured values as given in ChEMBL document CHEMBL2303647, “Data associated with the publication PLoS ONE, 8(3), e57888, (2013) PMID: 23505445. Compounds: GSK PKIS; Assays: NIH NCATS”.

Assays:
[1] = target: Luciferin 4-monooxygenase (Photinus pyralis, UniProt P08659)
Description: GSK_PKIS: Inhibition of Firefly Luciferase (Data from PubChem: AID 652016) [NIH NCATS]

[2] = target: T1, Coelenterazine h 2-monooxygenase (Renilla reniformis, UniProt P27652)
T1 sequence (P27652 whole entry): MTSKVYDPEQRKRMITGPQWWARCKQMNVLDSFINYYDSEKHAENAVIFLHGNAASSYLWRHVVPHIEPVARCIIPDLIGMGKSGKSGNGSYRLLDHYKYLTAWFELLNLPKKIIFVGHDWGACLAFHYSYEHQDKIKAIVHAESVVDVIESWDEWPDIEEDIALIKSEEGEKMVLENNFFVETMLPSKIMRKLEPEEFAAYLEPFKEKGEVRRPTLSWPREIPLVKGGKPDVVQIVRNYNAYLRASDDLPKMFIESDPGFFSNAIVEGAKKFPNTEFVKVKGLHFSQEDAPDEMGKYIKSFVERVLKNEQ
Description: GSK_PKIS: Inhibition of Sea Pansy Luciferase (Data from PubChem: AID 652015) [NIH NCATS]

Luciferin 4-monooxygenase, sequence (P08659 whole entry): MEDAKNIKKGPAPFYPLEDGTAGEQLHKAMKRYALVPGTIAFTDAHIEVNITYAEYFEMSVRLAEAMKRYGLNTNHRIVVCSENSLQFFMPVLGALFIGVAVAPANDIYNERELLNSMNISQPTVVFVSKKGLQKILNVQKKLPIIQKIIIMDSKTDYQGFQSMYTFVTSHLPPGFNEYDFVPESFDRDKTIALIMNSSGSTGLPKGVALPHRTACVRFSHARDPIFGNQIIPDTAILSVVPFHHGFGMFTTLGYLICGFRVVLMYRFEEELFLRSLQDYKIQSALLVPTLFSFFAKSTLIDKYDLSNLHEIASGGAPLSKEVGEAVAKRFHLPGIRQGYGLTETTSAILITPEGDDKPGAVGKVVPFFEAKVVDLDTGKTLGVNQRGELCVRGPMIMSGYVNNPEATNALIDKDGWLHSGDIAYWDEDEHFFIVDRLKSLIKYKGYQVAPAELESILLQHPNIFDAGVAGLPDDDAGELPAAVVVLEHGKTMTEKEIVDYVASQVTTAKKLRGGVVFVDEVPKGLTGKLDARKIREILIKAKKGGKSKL

Structure (SMILES)	AC50 ([2]; read-out: AC50) [µM]	AC50 ([1]; read-out: AC50) [µM]	AC50 [1]	AC50 [2]
Fc1ccc(-c2ncn(C3CCNCC3)c2-c2ccnc(Oc3ccc(Oc4ccccc4)cc3)n2)cc1	20.6		Phenotype: Inactive; Curve_Description: None	
O=C1NC(=O)C(N2CCc3ccccc32)=C1c1ccc(Cl)cc1	20.6	6.51		
O=C1Nc2ccccc2/C1=C1\CCc2cc(O)ccc21	20.6	5.17		
NCc1ccc(-n2c(-c3nonc3N)nc3cnccc32)cc1	41.1		Phenotype: Inactive; Curve_Description: None	
Cl.Oc1cccc(-c2nc(-c3ccccc3)[nH]c2-c2ccncc2)c1	23.1		Phenotype: Inactive; Curve_Description: None	
CCN1CCC(CC(=O)Nc2n[nH]c3nc(-c4cccs4)c(Br)cc23)CC1.O=C(O)C(O)C(O)C(=O)O	29.1		Phenotype: Inactive; Curve_Description: None	
COc1ccc2cc(-c3c(-c4ccncc4)nc(-c4ccc([S+](C)[O-])cc4C)n3C)ccc2c1 (stereo unspecified)	41.1		Phenotype: Inactive; Curve_Description: None	
COc1ccc(C2=C(N3CCc4ccccc43)C(=O)NC2=O)cc1	20.6		Phenotype: Inactive; Curve_Description: None	
NS(=O)(=O)c1cccc(-c2ccc3c(NC(=O)C4CC4)n[nH]c3c2)c1	36.6	20.6		
CC1=C(C(=O)Nc2ccc3[nH]ncc3c2)C(c2ccc(F)cc2)NC(=O)N1 (stereo unspecified) [GSK-180736A]			Phenotype: Inactive; Curve_Description: None	Phenotype: Inactive; Curve_Description: None
CCNC(=O)O[C@H]1CN[C@H](C#Cc2cc3ncnc(Nc4ccc(OCc5cccc(F)c5)c(Cl)c4)c3s2)C1 [GSK-192082A]			Phenotype: Inactive; Curve_Description: None	Phenotype: Inactive; Curve_Description: None
COc1cc2ncn(-c3cc(OCCc4ccccc4)c(C(N)=O)s3)c2cc1OC [GSK-204925A]			Phenotype: Inactive; Curve_Description: None	Phenotype: Inactive; Curve_Description: None
COc1cc2ncn(-c3cc(O[C@@H](C)c4ccccc4Cl)c(C(N)=O)s3)c2cc1OC [GSK-237700A]			Phenotype: Inactive; Curve_Description: None	Phenotype: Inactive; Curve_Description: None

More lines, main results first:

AC50 ([2]; read-out: AC50) [µM]	AC50 ([1]; read-out: AC50) [µM]	Structure (SMILES)	AC50 [1]	AC50 [2]
18.3	16.3	c1ccc(Cc2nc3ccc(Nc4ncnc5ccccc45)cc3[nH]2)cc1		
0.0007		COc1ccc2ncnc(Nc3ccc(OCc4ccccc4)cc3)c2c1.Cl	Phenotype: Inactive; Curve_Description: None	
29.1	14.6	CN(C)CCOc1ccc(-c2nc(-c3ccncc3)c(-c3ccc4c(c3)CC/C4=N\O)[nH]2)cc1		
32.6		CN1CCC(C(=O)Nc2n[nH]c3nc(-c4ccc(O)cc4)c(Br)cc23)CC1	Phenotype: Inactive; Curve_Description: None	
41.1	18.3	OCc1ccc(-c2nc(-c3ccccn3)c(-c3ccc4c(c3)OCO4)[nH]2)cc1		
18.3	20.6	Fc1ccc(-c2ncn(C3CCNCC3)c2-c2ccnc(Oc3ccccc3)n2)cc1		
	29.1	CN(C)C(=O)O[C@H]1CN[C@H](C#Cc2cc3ncnc(Nc4ccc(OCc5cccc(F)c5)c(Cl)c4)c3s2)C1 [GSK-182497A]		Phenotype: Inactive; Curve_Description: None
	18.3	Cl.O=C(O[C@H]1CN[C@H](C#Cc2cc3ncnc(Nc4ccc5c(cnn5Cc5ccccc5)c4)c3s2)C1)N1CCOCC1 [GSK-200398A]		Phenotype: Inactive; Curve_Description: None
3.66		COc1cc2ncn(-c3cc(O[C@H](C)c4ccccc4Cl)c(C(N)=O)s3)c2cc1OC [GSK-237701A]	Phenotype: Inactive; Curve_Description: None	
	32.6	CN(C)C(=O)O[C@@H]1CN[C@@H](C#Cc2cc3ncnc(Nc4ccc(OCc5cccc(F)c5)c(Cl)c4)c3s2)C1 [GSK-238063A]		Phenotype: Inactive; Curve_Description: None
